pIC50: −log10 of the molar value. Active and inactive are the calls of the source. No cut-off for these calls is given here.
Columns and labels:
[1] = target: T1, Hypoxia-inducible factor 1-alpha (Homo sapiens, UniProt Q16665); test: Inhibition of hypoxia-induced HIF1alpha transcriptional activity in HEK293 cells incubated for 16 hrs by hypoxia response element-driven luciferase reporter gene assay; type: cell-based
Target sequence in this assay (Q16665 whole entry): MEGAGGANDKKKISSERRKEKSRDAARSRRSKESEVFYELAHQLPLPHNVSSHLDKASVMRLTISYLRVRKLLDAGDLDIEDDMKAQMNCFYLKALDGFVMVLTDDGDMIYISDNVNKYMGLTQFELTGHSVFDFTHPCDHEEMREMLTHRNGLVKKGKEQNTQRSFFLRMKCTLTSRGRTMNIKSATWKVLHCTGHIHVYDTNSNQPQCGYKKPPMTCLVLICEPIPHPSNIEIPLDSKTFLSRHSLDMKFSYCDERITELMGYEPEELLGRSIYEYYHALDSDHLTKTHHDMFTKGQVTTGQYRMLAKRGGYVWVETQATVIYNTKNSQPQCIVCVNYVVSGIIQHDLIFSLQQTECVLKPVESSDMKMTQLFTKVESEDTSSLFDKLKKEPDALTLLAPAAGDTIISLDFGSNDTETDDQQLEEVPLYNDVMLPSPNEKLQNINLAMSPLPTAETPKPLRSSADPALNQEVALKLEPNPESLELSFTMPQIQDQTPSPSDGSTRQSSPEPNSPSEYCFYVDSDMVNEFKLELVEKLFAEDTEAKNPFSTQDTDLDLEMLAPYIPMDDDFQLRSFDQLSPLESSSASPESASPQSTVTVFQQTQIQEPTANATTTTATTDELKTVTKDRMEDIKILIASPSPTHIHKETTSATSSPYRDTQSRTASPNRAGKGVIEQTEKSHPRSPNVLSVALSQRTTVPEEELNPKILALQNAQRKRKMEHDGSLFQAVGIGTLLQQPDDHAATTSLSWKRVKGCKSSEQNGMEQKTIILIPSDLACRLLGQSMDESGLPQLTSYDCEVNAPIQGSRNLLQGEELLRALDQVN

[2] = target: T1, Hypoxia-inducible factor 1-alpha; test: Inhibition of HIF1alpha accumulation in human HeLa cells incubated for 4 hrs under hypoxic conditions by Western blot; type: cell-based
Target sequence in this assay (Q16665 whole entry, looked up): as the sequence (Q16665 whole entry) above

HeLa [3] = test: Effect on HIF1alpha mRNA expression in human HeLa cells incubated for 2 hrs under hypoxic conditions by RT-PCR; type: functional, cell-based
HeLa [4] = test: Inhibition of hypoxia-induced VEGF secretion in human HeLa cells incubated for 12 hrs under hypoxic conditions by ELISA; type: functional, cell-based
HeLa [5] = test: Effect on HIF1beta protein level in human HeLa cells incubated for 4 hrs under hypoxic conditions by Western blot

pIC50 [1]	Structure (SMILES)	other results
4.28	COc1cccc(CNc2ccc(NC(=O)Nc3ccccc3)cc2)c1	–
4.16	O=C(Nc1ccccc1)Nc1ccc(NCc2cccc(O)c2)cc1	–
4.66	COC(=O)c1ccc(OC)c(CNc2ccc(NC(=O)Nc3ccccc3)cc2)c1	–
4.49	COC(=O)c1ccccc1CNc1ccc(NC(=O)Nc2ccccc2)cc1	–
5.14	COC(=O)c1cccc(CNc2ccc(NC(=O)Nc3ccccc3)cc2)c1	inhibition [2]: Dose-dependent effect; Activity (HeLa [3]): inactive; pIC50 (HeLa [4]): 4.82; inhibition (HeLa [4]): Dose-dependent effect; Activity (HeLa [5]): inactive
4.38	O=C(Nc1ccccc1)Nc1ccc(NCc2cccc(C(=O)O)c2)cc1	–
< 4.00	COC(=O)c1ccc(CNc2ccc(NC(=O)Nc3ccccc3)cc2)cc1	–

Second part, the molecule before the results:

Structure (SMILES)	pIC50 [1]	other results
COc1ccc(CNc2ccc(NC(=O)Nc3ccccc3)cc2)cc1	4.64	–
COc1ccccc1CNc1ccc(NC(=O)Nc2ccccc2)cc1	4.76	–
COc1ccc(OC)c(CNc2ccc(NC(=O)Nc3ccccc3)cc2)c1	4.53	–
O=C(Nc1ccccc1)Nc1ccc(NCc2ccc(O)cc2)cc1	4.45	–
COC(=O)c1cc(CNc2ccc(NC(=O)Nc3ccccc3)cc2)cc(C(=O)OC)c1	4.82	–
COc1cc(CNc2ccc(NC(=O)Nc3ccccc3)cc2)cc(OC)c1	4.73	–
COc1cccc(CNc2ccc(NC(=O)Nc3ccccc3)cc2)c1OC	5.06	–
O=C(Nc1ccccc1)Nc1ccc(NCc2ccc(C(=O)O)cc2)cc1	< 4.00	–
O=C(Nc1ccccc1)Nc1ccc(NCc2ccccc2C(=O)O)cc1	4.29	–
O=C(Nc1ccccc1)Nc1ccc(NCc2ccccc2O)cc1	4.49	–
COc1cccc(OC)c1CNc1ccc(NC(=O)Nc2ccccc2)cc1	4.41	–
